In ChEMBL document CHEMBL4219258, “Determination of absolute configuration and binding efficacy of benzimidazole-based FabI inhibitors through the support of electronic circular dichroism and MM-GBSA techniques” (Bioorg Med Chem Lett, 2018) one finds IC50 data, which are given here for four compounds.

By IC50 is commonly meant the concentration that gives 50% inhibition.

The assay in a line: Inhibition of Francisella tularensis FabI.
For the compound `C[C@@H](c1ccc(Cl)c(Cl)c1)n1cnc2cc3c(cc21)CCCC3`, 14 nM corresponded to half-maximal inhibition (IC50). That is a double-digit nanomolar value. In the case of `C[C@H](c1ccc(Cl)c(Cl)c1)n1cnc2cc3c(cc21)CCCC3`, the midpoint of inhibition, the IC50, lay at 7800 nM. `C[C@H](c1ccc(Cl)c(Cl)c1)n1cnc2cc3c(cc21)CCC3` had a half-maximal inhibitory concentration (IC50) of 1840 nM. Then `C[C@@H](c1ccc(Cl)c(Cl)c1)n1cnc2cc3c(cc21)CCC3`, with 16 nM.
